According to patent US20230340498A1, “COMPOSITIONS AND METHODS FOR INDUCIBLE ALTERNATIVE SPLICING REGULATION OF GENE EXPRESSION” (The Children's Hospital of Philadelphia, priority 2020, published 2023):

What was measured:
[1] = test system: SMN2-on minigene; assay: SMN2-on cassette Firefly luciferase reporter assay in transfected HEK293 cells; type: cell-based, Human
Description: (§1) Cell culture, transfection, and LMI070/RG7800 treatment. Human embryonic kidney (HEK293) cells (obtained from CHOP Research Vector Core stock) were maintained in DMEM media containing 10% Fetal Bovine Serum (FBS), 1% L-Glutamine and 1% penicillin/streptomycin at 37° C. with 5% CO2. Cells were cultured in 24 well plates and transfected at 80-90% confluence using Lipofectamine 2000 transfection reagent, according to the manufacturer’s protocol. For all experiments, 4 hours after plasmid transfection, cells were treated with LMI070 (MedChemExpress, HY-19620, suspended in DMSO) or RG7800 (MedChemExpress, HY-101792A, suspended in H2O) at the indicated concentrations. Cells were tested for mycoplasma by Research Vector Core. None of the cells used in the study were listed in ICLAC database of commonly misidentified cell lines.
(§2) In vitro luciferase assays. HEK293 cells were cultured in DMEM (10% FBS (v/v), 1% Pen/ Strep (v/v), and 1% L-glutamine (v/v) in a 24-well plate. At 70%-80% confluence, cells were co-transfected with the Xon.Firefly luciferase cassettes (0.3 µg/well) and a SV40p-Renilla luciferase cassette as transfection control (0.02 µg/well). Four hours after transfections cells were treated either with LMI070 or RG7800 at indicated concentrations. At 24 h after transfection, cells were rinsed with ice-cold PBS and Renilla and Firefly luciferase activities were assessed using the Dual-Luciferase Reporter Assay System (Promega) according to the manufacturer’s instructions. Luminescent readouts were obtained with a Monolight 3010 luminometer (Pharmigen). Relative light units (RLUs) were calculated as the quotient of […] RLUs and results expressed relative to mock treated control cells.
For this, SMN2-on cassettes were generated to provide drug-induced reporter gene expression. HEK293 cells were transfected with the SMN2-on expression cassettes and luciferase activity evaluated in response to varying doses of LMI070 or RG7800. […]

[2] = test system: SF3B3-on switch; assay: Candidate minigene (SF3B3, BENC1, C12orf4, PDXDC2) switch-on luciferase assay in HEK293 cells; type: cell-based, Human
Description: as §1, §2
Next, a series of switch-on cassettes were developed from the top 4 LMI070-responsive exons found in the RNA-Seq dataset. […] HEK293 cells were transfected with the candidate cassettes, treated with LMI070, and luciferase activity or eGFP expression determined 24 h later. […]

SMILES: CC1(C)CC(Oc2ccc(-c3ccc(-c4cn[nH]c4)cc3O)nn2)CC(C)(C)N1 [LMI070, 5-(1H-Pyrazol-4-yl)-2-(6-((2,2,6,6-tetramethylpiperidin-4-yl)oxy)pyridazin-3-yl)phenol]
- luciferase activity from the SMN2-on minigene ([1]; HEK293 cells, varying doses): induced luciferase activity
- overall induction of luciferase, refined SMN2-on switch system ([1]; indSMN2 cassette, relative to DMSO treated cells (FIG. 1E: LMI070 100 nM)): approximately 20 fold
- luciferase expression of each candidate cassette in response to LMI070 ([2]; SF3B3, BENC1, C12orf4, PDXDC2 cassettes, 24 h): Increased luciferase expression
- luciferase induction of the SF3B3-on switch ([2]; in response to LMI070, relative to DMSO, 24 h): more than 100 fold
- fold-change in luciferase activity in response to LMI070, original intron ([2]; original SF3B3-on construct compared with alternate intron cassettes): > 200 fold
